Like-named read-outs stand apart in the source and are kept apart here.

Experiment [1] concerns the target T1, AChE from Electrophorus electricus (Electrophorus electricus, UniProt O42275).
T1 construct: purchased Sigma-Aldrich
Briefly: biochemical. To be noted: AChE from Electrophorus electricus (commercial enzyme); Ellman; Table 1; read-out: IC50 ± SEM, AChE. The protocol: (§1) The Ellman assay was used to test acetylcholinesterase (AChE from Electrophorus electricus, and human blood) and butyrylcholinesterase (BChE from equine serum) inhibition activity. Human blood was drawn using sterilized syringes and stored in BD Vacutainer tubes with heparin as an anticoagulant at 4 °C for 1 h. To lyse the erythrocytes, 1 mL of a 1:50 dilution of the blood sample was prepared with the non-ionic detergent triton X-100. A mixture of the DTNB (125 μL), enzyme solution (25 μL), and compound solution (25 μL) was prepared and incubated at room temperature for 20 min. All the assays were under 0.1 M KH2PO4/K2HPO4 buffer, pH 8.0. The substrate was added to start the enzymatic reaction. […] All measurements were performed fivefold as triplicate. The compounds were assayed in a dilution interval of 15 to 500 μg/mL.
For orientation: DTNB colorimetry detects thiols as they appear.

In a further experiment the target is T2, AChE from human blood (Homo sapiens, UniProt P22303).
T2 construct: the enzyme extracted from human blood; from tissue; host or cells: human whole blood, erythrocytes lysed with Triton X-100
Description: biochemical. To be noted: AChE obtained from human blood samples; Ellman; read-out: IC50 ± SEM, AChE hb. On the procedure: as §1, with “μg/mL. […] The percentage of inhibition was determined as follows: I(%)=(1−Aprobe/Ablank)100” for “μg/mL.”

The target in experiment [2] is T3, butyrylcholinesterase (BChE from equine serum) (Equus caballus, UniProt P81908).
T3 construct: butyrylcholinesterase (from equine serum) were purchased from Sigma-Aldrich; purchased Sigma-Aldrich; host or cells: equine serum
Description: Ellman assay, BChE inhibition. It is filed as biochemical. On the procedure:
as §1, with “μg/mL. […] The percentage of inhibition was determined as follows: I(%)=(1−Aprobe/Ablank)100” for “μg/mL.”

In experiment [3] the target is T4, AChE (Electrophorus electricus, UniProt O42275). Briefly: biochemical. It is filed as biochemical. To be noted: for Inhibition Type: Lineweaver-Burk and Dixon plots. On the procedure:
To investigate the inhibition mechanism of the tested compounds on AChE, a kinetic analysis was performed. The experiments were carried out using a combination of four substrate concentrations and three inhibitor concentrations with the view to obtain a double reciprocal plot (Lineweaver–Burk), in which each point is the mean of three different experiments. A parallel control with no inhibitor in the mixture allowed adjusting activities to be measured at various times.

For another experiment, the target named is T5, PAS of EeAChE (Electrophorus electricus, UniProt O42275).
T5 construct: purchased Sigma-Aldrich
Description: Propidium iodide displacement assay. The format is binding. To be noted: 0.25 h, read-out: % Displacement of Propidium Iodide. The protocol:
[…] Propidium iodide is known for ability to specifically binding to the PAS region of AChE.
The percentage inhibition was calculated by the following expression: 100-(IFi/IF0 × 100), where IF1 and IF0 correspond to fluorescence intensities with and without the test compound, respectively. Each assay was carried out in triplicate.

Experiment [4] concerns the target T4, AChE. To be noted: cited from earlier work; for IC50: read-out: IC50, AChE inhibitory activity.
Setting [5] is: alkaloids from Esenbeckia leiocarpa ref 40.

T1 sequence (O42275 24-633): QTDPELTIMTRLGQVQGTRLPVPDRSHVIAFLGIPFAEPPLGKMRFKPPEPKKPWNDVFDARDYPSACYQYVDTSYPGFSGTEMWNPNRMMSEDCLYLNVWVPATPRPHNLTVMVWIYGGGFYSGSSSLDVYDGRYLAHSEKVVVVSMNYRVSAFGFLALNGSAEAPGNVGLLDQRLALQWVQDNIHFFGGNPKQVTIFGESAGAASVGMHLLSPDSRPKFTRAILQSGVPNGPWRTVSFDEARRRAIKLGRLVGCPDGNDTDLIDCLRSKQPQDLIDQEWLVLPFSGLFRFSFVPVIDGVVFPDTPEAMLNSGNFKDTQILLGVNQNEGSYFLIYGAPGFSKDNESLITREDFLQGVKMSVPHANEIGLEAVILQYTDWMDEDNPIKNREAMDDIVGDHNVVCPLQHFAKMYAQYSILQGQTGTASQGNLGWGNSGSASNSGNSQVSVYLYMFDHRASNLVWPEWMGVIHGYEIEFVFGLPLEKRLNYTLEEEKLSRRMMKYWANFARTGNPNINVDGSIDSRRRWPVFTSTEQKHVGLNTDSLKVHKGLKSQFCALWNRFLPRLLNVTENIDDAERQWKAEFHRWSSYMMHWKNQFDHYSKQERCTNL
T4 sequence (O42275 24-633): as above
T5 sequence (O42275 24-633): as above
T3 sequence (P81908 whole entry): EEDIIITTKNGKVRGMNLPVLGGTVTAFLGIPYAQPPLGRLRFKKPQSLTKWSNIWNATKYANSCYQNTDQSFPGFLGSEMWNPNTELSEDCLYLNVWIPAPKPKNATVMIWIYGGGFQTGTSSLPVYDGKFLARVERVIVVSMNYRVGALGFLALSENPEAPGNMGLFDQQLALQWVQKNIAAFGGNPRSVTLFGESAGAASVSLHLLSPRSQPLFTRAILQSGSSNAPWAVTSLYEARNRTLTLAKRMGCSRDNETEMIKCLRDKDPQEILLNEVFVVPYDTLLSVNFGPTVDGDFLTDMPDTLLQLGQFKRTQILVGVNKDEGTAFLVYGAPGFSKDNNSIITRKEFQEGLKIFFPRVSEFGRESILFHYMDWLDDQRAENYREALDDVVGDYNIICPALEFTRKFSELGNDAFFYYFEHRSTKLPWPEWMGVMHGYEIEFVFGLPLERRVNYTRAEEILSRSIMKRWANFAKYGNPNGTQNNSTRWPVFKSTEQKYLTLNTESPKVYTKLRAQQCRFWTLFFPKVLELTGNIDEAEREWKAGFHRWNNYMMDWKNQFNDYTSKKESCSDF
T2 sequence (P22303 32-617 isoform P22303-2 limits assumed): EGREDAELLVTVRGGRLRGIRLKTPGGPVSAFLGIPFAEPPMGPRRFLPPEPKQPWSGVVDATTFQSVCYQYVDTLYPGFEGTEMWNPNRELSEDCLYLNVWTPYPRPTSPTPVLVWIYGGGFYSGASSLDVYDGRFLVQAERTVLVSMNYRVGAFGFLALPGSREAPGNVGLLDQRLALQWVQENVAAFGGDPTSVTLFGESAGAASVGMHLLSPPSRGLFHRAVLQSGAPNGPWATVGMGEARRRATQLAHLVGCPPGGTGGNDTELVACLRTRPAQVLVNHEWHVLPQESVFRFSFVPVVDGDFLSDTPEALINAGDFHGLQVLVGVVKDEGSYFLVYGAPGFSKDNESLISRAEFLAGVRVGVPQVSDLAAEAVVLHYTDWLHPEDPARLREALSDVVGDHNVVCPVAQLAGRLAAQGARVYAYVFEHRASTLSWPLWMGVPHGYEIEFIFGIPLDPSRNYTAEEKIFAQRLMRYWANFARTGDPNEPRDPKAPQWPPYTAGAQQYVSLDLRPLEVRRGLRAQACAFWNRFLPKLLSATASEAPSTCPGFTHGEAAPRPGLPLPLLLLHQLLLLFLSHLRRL

As a reminder, the IC50 is the concentration that inhibits the measured activity by half. The Ki is the dissociation constant of the complex between target and ligand, obtained from inhibition or displacement. Regarding `C=C(C)[C@@H]1CC[C@]2(C(=O)O)CC[C@]3(C)[C@H](CC[C@@H]4[C@@]5(C)[C@H](CO)[C@@H](O)C(C)(C)[C@@H]5CC[C@]43C)[C@@H]12` [Compound 5, Ceanothanolic acid], the figures for the IC50 (in experiment [1]; at AChE from human blood; in experiment [2]) were 0.155 ± 0.0001 µM, 0.181 ± 0.0007 µM and greater than 500 µM, respectively. Further, the Ki on AChE [3] came out at 0.056 µM. Also, on AChE [3], the “Inhibition Type” value is reported as “mixed competitive mode inhibition”. Also, the inhibition at 0.75 µM at PAS of EeAChE stood at 14.5 ± 0.3%. Moreover, on PAS of EeAChE (1.5 µM compound, EeAChE), the inhibition at 1.5 µM turned out to be 19.3 ± 1.5%.

As to `O=c1c(O)c(-c2ccccc2)oc2cc(O)cc(O)c12` [galangin], on AChE [4], the IC50 was 120 µM.

On to `C=C(C)[C@@H]1CC[C@]2(C(=O)O)CC[C@]3(C)C(CCC4[C@@]5(C)C(C=O)=CC(C)(C)C5CC[C@]43C)C12` (stereo partly shown) [Compound 1, Zizyberenalic acid], for which the IC50 is 0.184 ± 0.0007 µM in experiment [1], 0.215 ± 0.005 µM at AChE from human blood and greater than 500 µM in experiment [2]. For the same compound, at AChE [3], the Ki amounted to 0.046 µM. Moreover, at AChE [3], the “Inhibition Type” value is on record as “mixed competitive mode inhibition”. For the same compound, the inhibition at 0.75 µM on PAS of EeAChE is 19.7 ± 0.8%. Also, the inhibition at 1.5 µM on PAS of EeAChE (1.5 µM compound, EeAChE) is 26.3 ± 1.3%.

With `C[C@H]1[C@H](C)CC[C@]2(C(=O)O)CC[C@]3(C)C(=CC[C@@H]4[C@@]5(C)CC[C@H](O)C(C)(C)[C@@H]5CC[C@]43C)[C@H]12` [ursolic acid], the “mode of AChE inhibition” value on AChE [4] is on record as “competitive/non-competitive”.

For the compound `C=C(C)[C@@H]1CC[C@]2(C(=O)O)CC[C@]3(C(=O)O)[C@H](CC[C@@H]4[C@@]5(C)C=CC(C)(C)[C@@H]5CC[C@]43C)[C@@H]12` [Compound 4, Ceanothenic acid], the results for the IC50 (in experiment [1]; on AChE from human blood; in experiment [2]) were 0.188 ± 0.0005 µM, 0.219 ± 0.004 µM and greater than 500 µM, respectively. In addition, at AChE [3], the inhibitory constant (Ki) was 0.022 µM. Besides, the “Inhibition Type” value on AChE [3] was “mixed competitive mode inhibition”. Besides, at PAS of EeAChE, the inhibition at 0.75 µM was determined as 20.1 ± 1%. Also, the inhibition at 1.5 µM on PAS of EeAChE (1.5 µM compound, EeAChE) came out at 26.7 ± 1.3%.

Turning to `C=C(C)[C@@H]1CC[C@]2(C(=O)O)CC[C@]3(C)[C@H](CC[C@@H]4[C@@]5(C)[C@@H](C(=O)O)[C@H](O)C(C)(C)[C@@H]5CC[C@]43C)[C@@H]12` [Compound 3, Ceanothic acid], the IC50 is 0.125 ± 0.0004 µM in experiment [1], 0.146 ± 0.003 µM at AChE from human blood and greater than 500 µM in experiment [2]. Also, the Ki on AChE [3] was 0.055 µM. The “Inhibition Type” value on AChE [3] is “partially competitive”; at AChE [3] (listed as compound 3), “competitive and reversible”. Moreover, on PAS of EeAChE, the inhibition at 0.75 µM was determined as 34.2 ± 0.6%. The inhibition at 1.5 µM on PAS of EeAChE (1.5 µM compound, EeAChE) came out at 45.6 ± 1.1%.

For `COc1cc2nc3occc3c(OC)c2cc1OC` [kokusaginine], the IC50 at AChE [4] (setting [5]) is 46 µM.

Take `C=C(C)[C@@H]1CC[C@]2(C(=O)O)CC[C@]3(C)C(CCC4[C@@]5(C)C(C(=O)O)C(OC(C)=O)C(C)(C)C5CC[C@]43C)C12` (stereo partly shown) [Compound 7, 3-O-acetyl-ceanothic acid]: the IC50 in experiment [1] is 0.179 ± 0.0001 µM; on AChE from human blood it was 0.207 ± 0.006 µM; in experiment [2], greater than 500 µM. In addition, the Ki on AChE [3] came to 0.05 µM. The “Inhibition Type” value on AChE [3] was “partially competitive”. For the same compound, the inhibition at 1.5 µM at PAS of EeAChE worked out at 32.1 ± 1.3%.

On to `C=C(C)[C@@H]1CC[C@]2(C(=O)O)CC[C@]3(C)C(CCC4[C@@]5(C)C(C(=O)O)C(=O)C(C)(C)C5CC[C@]43C)C12` (stereo partly shown) [Compound 6, 3-oxo-ceanothic acid], for which the IC50 in experiment [1] is 0.172 ± 0.0012 µM; on AChE from human blood, 0.199 ± 0.009 µM; in experiment [2], greater than 500 µM. In addition, at AChE [3], the inhibitory constant (Ki) was determined as 0.047 µM. On AChE [3], the “Inhibition Type” value is given as “mixed competitive mode inhibition”. Besides, the inhibition at 0.75 µM at PAS of EeAChE came to 24.3 ± 0.7%. For the same compound, the inhibition at 1.5 µM at PAS of EeAChE (1.5 µM compound, EeAChE) stood at 40.5 ± 1.5%.

For `CCCc1cc(=O)c2ccccc2n1C` [leptomerine], the IC50 at AChE [4] (setting [5]) is 2.5 µM.

Regarding `C=C(C)[C@@H]1CC[C@]2(C(=O)O)CC[C@]3(C)C(CCC4[C@@]5(C)C(C=O)C(O)C(C)(C)C5CC[C@]43C)C12` (stereo partly shown) [Compound 2, Zizyberanalic acid], the IC50 in experiment [1] is 0.15 ± 0.0009 µM; at AChE from human blood, 0.173 ± 0.006 µM; in experiment [2] it was greater than 500 µM. For the same compound, the Ki on AChE [3] came to 0.028 µM. Further, the “Inhibition Type” value on AChE [3] is given as “mixed competitive mode inhibition”. The inhibition at 1.5 µM on PAS of EeAChE stood at 23.2 ± 0.8%.

Source of the values: paper PMC9318782, “Assessments of Ceanothanes Triterpenes as Cholinesterase Inhibitors: An Investigation of Potential Agents with Novel Inspiration for Drug Treatment of Neurodegenerative Diseases” (Metabolites, 2022).
